# Data taken from patent US20110313672A1, “CELLULAR ANTIOXIDANT ACTIVITY (CAA) ASSAY” (CORNELL UNIVERSITY, priority 2007, published 2011).
# “And” between values parts separate entries of the source, which are not always exact repeats. Identical values can stand only once. Like-named read-outs stand apart in the source and are kept apart here.
# Assays:
# [1] = system: HepG2 cells; test: Cellular antioxidant activity (CAA) assay: inhibition of peroxyl radical-induced DCFH oxidation; type: cell-based, human; settings: for EC50: mean ± SD, n=3; for CAA value: Example 1, pure compounds, EC50 converted to quercetin equivalents
# [2] = Oxygen radical absorbance capacity (ORAC) assay; settings: Example 3; flavonoids; mean ± SD, n ≧ 3
# Method: The peroxyl radical scavenging efficacy of selected fruits was measured using the ORAC assay (Prior, R. L., et al (2003) J. Agric. Food Chem. 51:3273-3279). Briefly, 20 μL of blank, Trolox standard, or fruit extracts in 75 mM potassium phosphate buffer, pH 7.4 (working buffer), was added to triplicate wells in a black, clear-bottom, 96-well microplate. The triplicate samples were distributed throughout the microplate and were not placed side-by-side, to avoid any effects on readings due to location. In addition, no outside wells were used, as use of those wells results in greater variation. A volume of 200 μL of 0.96 μM fluorescein in working buffer was added to each well and incubated at 37° C. for 20 min, with intermittent shaking, before the addition of 20 μL of freshly prepared 119 mM ABAP in working buffer using a 12-channel pipetter. The microplate was immediately inserted into a Fluoroskan Ascent FL plate reader (ThermoLabsystems) at 37° C. The decay of fluorescence at 538 nm was measured with excitation at 485 nm every 4.5 min for 2.5 h. The areas under the fluorescence versus time curve for the samples minus the area under the curve for the blank were calculated and compared to a standard curve of the areas under the curve for 6.25, 12.5, 25, and 50 μM Trolox standards minus the area under the curve for blank. ORAC values were expressed as mean micromoles of Trolox equivalents (TE) per 100 g of fruit±SD for triplicate data from one experiment.
# ORAC measurements were performed as described herein in Example 2.
substance,measurement,setting,value
(−)-epigallocatechin gallate [EGCG],EC50,"[1]; Example 1, Table 1, PBS wash, pure phytochemical compounds, read-out: EC50 for inhibition of peroxyl radical-induced DCFH oxidation",15.8 ± 0.4 µM
same,EC50,"[1]; Example 1, Table 1, no PBS wash, pure phytochemical compounds, read-out: EC50 for inhibition of peroxyl radical-induced DCFH oxidation",14 ± 1 µM
same,CAA value,[1]; PBS wash,32.3 ± 0.9 µmol QE/100 µmol
same,CAA value,[1]; no PBS wash,42.2±3.1 μmol QE/100 μmol
same,CAA,"[1]; Example 3, Table 7, PBS wash",63.8 ± 4.4 μmol of QE/100 μmol
same,EC50,"[1]; Example 3, Table 7, PBS wash, flavonoids, read-out: EC50",12.8 ± 0.9 µM
same,CAA,"[1]; Example 3, Table 7, no PBS wash",72.1 ± 3.8 μmol of QE/100 μmol
same,EC50,"[1]; Example 3, Table 7, no PBS wash, flavonoids, read-out: EC50",12.3 ± 0.7 µM
same,ORAC,[2],4.55±0.40 μmol of TE/μmol and 4.55 ± 0.40 fgh μmol of TE/μmol
